Results as given in ChEMBL document CHEMBL1833872, “Improved synthesis and biological evaluation of chelator-modified α-MSH analogs prepared by copper-free click chemistry” (Bioorg Med Chem Lett, 2011).

Molecular target: Melanocyte-stimulating hormone receptor (Mus musculus, UniProt Q01727)
Assay: Displacement of [125I]-[Nle4-D-Phe7]-alpha-MSH from MC1R in mouse B16-F10 cells after 1.5 hrs by gamma counting
Type: cell-based

Chain of Melanocyte-stimulating hormone receptor (Q01727 whole entry): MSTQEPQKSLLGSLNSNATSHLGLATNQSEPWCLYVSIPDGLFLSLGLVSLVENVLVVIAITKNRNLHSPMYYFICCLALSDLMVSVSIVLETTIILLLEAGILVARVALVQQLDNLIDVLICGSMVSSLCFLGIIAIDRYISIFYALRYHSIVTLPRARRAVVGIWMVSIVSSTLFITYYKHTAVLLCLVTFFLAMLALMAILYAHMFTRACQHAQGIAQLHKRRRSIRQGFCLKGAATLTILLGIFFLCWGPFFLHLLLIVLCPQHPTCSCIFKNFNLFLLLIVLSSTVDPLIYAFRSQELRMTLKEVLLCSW

CCCC[C@H](NC(=O)[C@H](CO)NC(=O)[C@H](Cc1ccc(O)cc1)NC(=O)[C@H](CO)NCCCCCCN=[N+]=[N-])C(=O)N[C@@H](CCC(=O)O)C(=O)N[C@@H](Cc1cnc[nH]1)C(=O)N[C@H](Cc1ccccc1)C(=O)N[C@@H](CCCN=C(N)N)C(=O)N[C@@H](Cc1c[nH]c2ccccc12)C(=O)NCC(=O)N[C@@H](CCCCN)C(=O)N1CCC[C@H]1C(=O)N[C@H](C(N)=O)C(C)C
IC50: 0.25 nM
